In brackets after ≈: the same amount, converted by molar mass.
Assay: physchem
Conditions: 60 °C, thermodynamic from solid
Description: • (6) Solubility of Nitrogen-Containing Additive
After 100 mg of the nitrogen-containing additive and 1 L of a solvent were mixed, the resulting mixture was stirred at a rotational speed of 200 rpm at 60° C. for 1 hour using a mixing machine to dissolve the nitrogen-containing additive.

| Compound | solubility at 1 h (aqueous buffer) [µg/mL] | solubility at 1 h (water) [µg/mL] |
| --- | --- | --- |
| c1cc(-c2ccc3ccc4ccc(-c5cccc6ccccc56)nc4c3n2)cc(-c2ccc3ccc4ccc(-c5cccc6ccccc56)nc4c3n2)c1 [ADT-14] | 2.8 (≈ 4.08 µM) | < 0.1 |
| c1cc(-c2ccc3ccc4cccnc4c3n2)cc(-c2ccc3ccc4cccnc4c3n2)c1 [ADT-1] | 5 (≈ 11.5 µM) | < 0.1 |
| c1ccc(-c2ccc3ccc4ccc(-c5ccc(-c6ccc7ccc8ccc(-c9ccccc9)nc8c7n6)cc5)nc4c3n2)cc1 [ADT-15] | 2.5 (≈ 4.26 µM) | < 0.1 |
| c1cnc2c(c1)ccc1ccc(-c3ccc(-c4ccc5ccc6cccnc6c5n4)cc3)nc12 [ADT-3] | 4.2 (≈ 9.67 µM) | < 0.1 |
| c1ccc(-c2ccc3ccc4ccc(-c5cccc(-c6ccc7ccc8ccc(-c9ccccc9)nc8c7n6)c5)nc4c3n2)cc1 [ADT-2] | 3.4 (≈ 5.8 µM) | < 0.1 |
| CC(C)(C)c1ccc(-c2ccc3ccc4ccc(-c5ccc(-c6ccc7ccc8ccc(-c9ccc(C(C)(C)C)cc9)nc8c7n6)cc5)nc4c3n2)cc1 [ADT-16] | 2.8 (≈ 4.01 µM) | < 0.1 |
| c1ccc(-c2ccc(-c3ccc4ccc5cccnc5c4n3)cc2)c(-c2ccc(-c3ccc4ccc5cccnc5c4n3)cc2)c1 [ADT-8] | 3.3 (≈ 5.62 µM) | < 0.1 |
| c1cnc2c(c1)ccc1ccc(-c3cccc4c(-c5ccc6ccc7cccnc7c6n5)cccc34)nc12 [ADT-7] | 4.5 (≈ 9.29 µM) | < 0.1 |
| Cc1cc(C)cc(-c2ccc3ccc4ccc(-c5cccc(-c6ccc7ccc8ccc(-c9cc(C)cc(C)c9)nc8c7n6)c5)nc4c3n2)c1 [ADT-12] | 3.1 (≈ 4.82 µM) | < 0.1 |
| CC(C)(C)c1ccc(-c2ccc3ccc4ccc(-c5cccc(-c6ccc7ccc8ccc(-c9ccc(C(C)(C)C)cc9)nc8c7n6)c5)nc4c3n2)cc1 [ADT-11] | 2.9 (≈ 4.15 µM) | < 0.1 |
| c1ccc2c(-c3ccc4ccc5ccc(-c6ccc(-c7ccc8ccc9ccc(-c%10cccc%11ccccc%10%11)nc9c8n7)cc6)nc5c4n3)cccc2c1 [ADT-4] | 1.9 (≈ 2.77 µM) | < 0.1 |
| Cc1ccc(-c2ccc3ccc4ccc(-c5cccc(-c6ccc7ccc8ccc(-c9ccc(C)cc9)nc8c7n6)c5)nc4c3n2)cc1 [ADT-13] | 3.2 (≈ 5.21 µM) | < 0.1 |
| c1cnc2c(c1)ccc1cccnc12 [1,10-phenanthroline, reference compound] | ≥ 100 | ≥ 100 |
| c1cc(-c2cccc(-c3ccc4ccc5cccnc5c4n3)c2)cc(-c2cccc(-c3ccc4ccc5cccnc5c4n3)c2)c1 [ADT-10] | 3.6 (≈ 6.14 µM) | < 0.1 |
| Nc1cc2cccnc2c2ncccc12 [5-amino-1,10-phenanthroline, reference compound] | ≥ 100 | ≥ 100 |
| c1cnc2c(c1)ccc1ccc(-c3cc(-c4ccc5ccc6cccnc6c5n4)cc(-c4ccc5ccc6cccnc6c5n4)c3)nc12 [ADT-18] | 1.3 (≈ 2.12 µM) | < 0.1 |
| c1ccc(-c2ccc3ccc4ccc(-c5ccc6ccc(-c7ccc8ccc9ccc(-c%10ccccc%10)nc9c8n7)cc6c5)nc4c3n2)cc1 [ADT-6] | 2.6 (≈ 4.08 µM) | < 0.1 |
| O=S(=O)(O)c1ccc(-c2ccc3ccc4ccc(-c5cccc(-c6ccc7ccc8ccc(-c9ccc(S(=O)(=O)O)cc9)nc8c7n6)c5)nc4c3n2)cc1 [ADT-21] | 6.3 (≈ 8.44 µM) | < 0.1 |
| Nc1ccc(-c2ccc3ccc4ccc(-c5cccc(-c6ccc7ccc8ccc(-c9ccc(N)cc9)nc8c7n6)c5)nc4c3n2)cc1 [ADT-20] | 7.5 (≈ 12.2 µM) | < 0.1 |
| c1cnc2c(c1)ccc1ccc(-c3ccc(C(c4ccc(-c5ccc6ccc7cccnc7c6n5)cc4)(c4ccc(-c5ccc6ccc7cccnc7c6n5)cc4)c4ccc(-c5ccc6ccc7cccnc7c6n5)cc4)cc3)nc12 [ADT-19] | < 0.1 | < 0.1 |
| c1cc(-c2ccc(-c3ccc4ccc5cccnc5c4n3)cc2)cc(-c2ccc(-c3ccc4ccc5cccnc5c4n3)cc2)c1 [ADT-9] | 3 (≈ 5.11 µM) | < 0.1 |
| c1cnc2c(c1)ccc1ccc(-c3ccc4ccc(-c5ccc6ccc7cccnc7c6n5)cc4c3)nc12 [ADT-5] | 4 (≈ 8.25 µM) | < 0.1 |
| c1cc(-c2cccc(-c3ccc4ccc5cccnc5c4n3)c2)cc(-c2ccc3ccc4cccnc4c3n2)c1 [ADT-17] | 4.6 (≈ 9.01 µM) | < 0.1 |
